Data published in ChEMBL document CHEMBL3596115, “Discovery of novel guanidinophenylpyrazole human acrosin inhibitors by molecular hybridization” (Medchemcomm, 2014).

Legend:
Acrosin = Acrosin (Homo sapiens, UniProt P10323); assay: Inhibition of acrosin in human liquefied human semen using BAPNA incubated at 37.8 degC for 3 hrs by spectrophotometry
[1] = Inhibition of pig trypsin; parameters: species or system Sus scrofa

Acrosin, sequence (P10323 20-42 limits assumed): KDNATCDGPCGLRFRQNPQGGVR
Acrosin, sequence (P10323 43-343 limits assumed): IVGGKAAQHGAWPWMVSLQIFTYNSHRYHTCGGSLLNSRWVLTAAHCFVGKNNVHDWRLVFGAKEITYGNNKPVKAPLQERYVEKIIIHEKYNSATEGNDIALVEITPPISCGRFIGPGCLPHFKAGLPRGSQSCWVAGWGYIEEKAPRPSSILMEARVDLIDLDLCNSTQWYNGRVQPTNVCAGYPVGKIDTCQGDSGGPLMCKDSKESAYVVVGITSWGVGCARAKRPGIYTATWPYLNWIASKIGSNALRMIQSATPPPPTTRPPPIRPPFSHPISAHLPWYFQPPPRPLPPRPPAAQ

COC(=O)c1ccc(OC(=O)c2ccc(NC(=N)N)cc2)cc1
IC50 (Acrosin): 2.41 µM

N=C(N)Nc1ccc(-c2cc(C(=O)Nc3ccc(F)cc3)n[nH]2)cc1
IC50 (Acrosin): 24.5 µM

N=C(N)Nc1ccc(-c2cc(C(=O)Nc3ccccc3)n[nH]2)cc1
IC50 (Acrosin): 15.1 µM

COc1ccc(NC(=O)c2cc(-c3ccc(NC(=N)N)cc3)[nH]n2)c(OC)c1
IC50 (Acrosin): 2.38 µM

COc1ccc(OC)c(NC(=O)c2cc(-c3ccc(NC(=N)N)cc3)[nH]n2)c1
IC50 (Acrosin): 1.26 µM
IC50 [1]: 2100 µM

Cc1cccc(NC(=O)c2cc(-c3ccc(NC(=N)N)cc3)[nH]n2)c1
IC50 (Acrosin): 9.43 µM

COc1ccc(NC(=O)c2cc(-c3ccc(NC(=N)N)cc3)[nH]n2)cc1
IC50 (Acrosin): 11.3 µM

N=C(N)Nc1ccc(-c2cc(C(=O)Nc3cccc(Cl)c3)n[nH]2)cc1
IC50 (Acrosin): 17.7 µM

N=C(N)Nc1ccc(-c2cc(C(=O)Nc3ccc(Br)cc3)n[nH]2)cc1
IC50 (Acrosin): 16.1 µM

CCOC(=O)c1ccccc1NC(=O)c1cc(-c2ccc(NC(=N)N)cc2)[nH]n1
IC50 (Acrosin): 5.73 µM

N=C(N)Nc1ccc(-c2cc(C(=O)Nc3ccc4c(c3)OCCO4)n[nH]2)cc1
IC50 (Acrosin): 25.4 µM

Cc1ccccc1NC(=O)c1cc(-c2ccc(NC(=N)N)cc2)[nH]n1
IC50 (Acrosin): 10.9 µM

Cc1cc(C)cc(NC(=O)c2cc(-c3ccc(NC(=N)N)cc3)[nH]n2)c1
IC50 (Acrosin): 9.46 µM

N=C(N)Nc1ccc(-c2cc(C(=O)Nc3ccc(Cl)cc3)n[nH]2)cc1
IC50 (Acrosin): 23.9 µM

Cc1cccc(NC(=O)c2cc(-c3ccc(NC(=N)N)cc3)[nH]n2)c1C
IC50 (Acrosin): 8.45 µM

N=C(N)Nc1ccc(-c2cc(C(=O)Nc3cccc(C(F)(F)F)c3)n[nH]2)cc1
IC50 (Acrosin): 23.7 µM

Cc1ccc(C)c(NC(=O)c2cc(-c3ccc(NC(=N)N)cc3)[nH]n2)c1
IC50 (Acrosin): 7.47 µM

CCN(CC)c1ccc(NC(=O)c2cc(-c3ccc(NC(=N)N)cc3)[nH]n2)cc1
IC50 (Acrosin): 25.9 µM

N=C(N)Nc1ccc(-c2cc(C(=O)Nc3cccc(Br)c3)n[nH]2)cc1
IC50 (Acrosin): 13.1 µM

N=C(N)Nc1ccc(-c2cc(C(=O)Nc3cccc4ccccc34)n[nH]2)cc1
IC50 (Acrosin): 24.4 µM

CC(C)(C)c1ccc(NC(=O)c2cc(-c3ccc(NC(=N)N)cc3)[nH]n2)cc1
IC50 (Acrosin): 5.87 µM

Cc1cccc(C)c1NC(=O)c1cc(-c2ccc(NC(=N)N)cc2)[nH]n1
IC50 (Acrosin): 4.32 µM

COc1ccc(NC(=O)c2cc(-c3ccc(NC(=N)N)cc3)[nH]n2)cc1OC
IC50 (Acrosin): 3.44 µM

N=C(N)Nc1ccc(-c2cc(C(=O)Nc3ccc(O)cc3)n[nH]2)cc1
IC50 (Acrosin): 28.3 µM

N=C(N)Nc1ccc(-c2cc(C(=O)Nc3ccc(Nc4ccccc4)cc3)n[nH]2)cc1
IC50 (Acrosin): 26.8 µM

COc1cccc(NC(=O)c2cc(-c3ccc(NC(=N)N)cc3)[nH]n2)c1
IC50 (Acrosin): 2.42 µM

N=C(N)Nc1ccc(-c2cc(C(=O)Nc3ccc(C(F)(F)F)cc3)n[nH]2)cc1
IC50 (Acrosin): 16.6 µM

CCOC(=O)c1cc(-c2ccc(NC(=N)N)cc2)[nH]n1
IC50 (Acrosin): > 100 µM

N=C(N)Nc1ccc(-c2cc(C(=O)O)n[nH]2)cc1
IC50 (Acrosin): > 100 µM
